Reference: patent publication US20150037825A1 (priority 2011, published 2015)
Structures can show the parent of a compound that is named as a salt. Marks after values point to notes of the source that are not given here.

System: plasma metabolites
Settings: rat, in vivo

Compound: O=P1(N(CCCl)CCCl)NCCCO1 (stereo not drawn) [Cyclophosphamide monohydrate]
- 3-Hydroxybutyrate, plasma, ratio vs control: 0.75 *
- 18-Hydroxy-11-deoxycorticosterone, plasma, ratio vs control: 0.16 *
- Choline plasmalogen No 02, plasma, ratio vs control: 1.13 *
- Citrate, plasma, ratio vs control: 0.78 *
- Isoleucine, plasma, ratio vs control: 1.23 *
- Ketoleucine, plasma, ratio vs control: 0.88 *
- Leucine, plasma, ratio vs control: 1.33 *
- Lignoceric acid (C24:0), plasma, ratio vs control: 1.29 *
- Taurine, plasma, ratio vs control: 1.21 *
- Tricosanoic acid (C23:0), plasma, ratio vs control: 1.44 *
- Valine, plasma, ratio vs control: 1.25 *

Compound: C[C@H]1C[C@@H]2[C@H]([C@@H](O)C[C@@]3(C)[C@H]2CC[C@]3(O)C(=O)CO)[C@@]2(C)C=CC(=O)C=C12 [Methylprednisolone]
- 18-Hydroxy-11-deoxycorticosterone, ratio versus control: 0.15 *
- Aspartate, ratio versus control: 1.37 *
- Cholesterolester No 01, ratio versus control: 1.08 *
- Glutamate, ratio versus control: 1.11 *
- Glycerol-3-phosphate, polar fraction, ratio versus control: 1.4 *
- Ketoleucine, ratio versus control: 0.75 *
- Pyruvate, ratio versus control: 0.65 *

Compound: Nc1ccn([C@@H]2O[C@H](CO)[C@@H](O)[C@@H]2O)c(=O)n1 [Cytarabin]
- 3-Hydroxybutyrate, plasma, ratio vs control: 0.53 *
- 18-Hydroxy-11-deoxycorticosterone, plasma, ratio vs control: 0.13 *
- Choline plasmalogen No 02, plasma, ratio vs control: 1.11 *
- Citrate, plasma, ratio vs control: 0.81 *
- Isoleucine, plasma, ratio vs control: 1.1 *
- Ketoleucine, plasma, ratio vs control: 0.75 *
- Leucine, plasma, ratio vs control: 1.12 *
- Lignoceric acid (C24:0), plasma, ratio vs control: 1.31 *
- Taurine, plasma, ratio vs control: 1.27 *
- Tricosanoic acid (C23:0), plasma, ratio vs control: 1.3
- Valine, plasma, ratio vs control: 1.1 *

Compound: COc1cccc2c1C(=O)c1c(O)c3c(c(O)c1C2=O)C[C@@](O)(C(=O)CO)C[C@@H]3O[C@H]1C[C@H](N)[C@H](O)[C@H](C)O1 [Adriamycin hydrochloride]
- 3-Hydroxybutyrate, plasma, ratio vs control: 0.66 *
- 18-Hydroxy-11-deoxycorticosterone, plasma, ratio vs control: 0.44 *
- Choline plasmalogen No 02, plasma, ratio vs control: 1.18 *
- Citrate, plasma, ratio vs control: 0.86
- Ketoleucine, plasma, ratio vs control: 0.69 *
- Lignoceric acid (C24:0), plasma, ratio vs control: 2.04 *
- Taurine, plasma, ratio vs control: 1.39 *
- Tricosanoic acid (C23:0), plasma, ratio vs control: 2.14 *

Compound: N.N.O=C([O-])C1(C(=O)[O-])CCC1.[Pt+2] [Carboplatin]
- 3-Hydroxybutyrate, plasma, ratio vs control: 0.74 *
- 4-Hydroxyphenylpyruvate, plasma, ratio vs control: 0.39 *
- 14-Methylhexadecanoic acid, plasma, ratio vs control: 0.72 *
- 21-Hydroxyprogesterone (11-Deoxycorticosterone), plasma, ratio vs control: 0.09 *
- Ascorbic acid, plasma, ratio vs control: 0.84 *
- Choline plasmalogen (C18, C20:4), plasma, ratio vs control: 0.89 *
- Corticosterone, plasma, ratio vs control: 0.31 *
- Fructose-6-phosphate, plasma, ratio vs control: 1.74 *
- Glucose-6-phosphate, plasma, ratio vs control: 2.2 *
- Histidine, plasma, ratio vs control: 1.17 *
- Indole-3-lactic acid, plasma, ratio vs control: 1.13 *
- Ornithine, plasma, ratio vs control: 1.11 *
- Phenylalanine, plasma, ratio vs control: 1.2 *
- Phosphate (inorganic and organic phosphates), plasma, ratio vs control: 1.57 *
- Phosphatidylcholine (C18:0, C18:2), plasma, ratio vs control: 1.22 *
- Progesterone, plasma, ratio vs control: 0.49*
- Taurine, plasma, ratio vs control: 1.47 *
- Threonic acid, plasma, ratio vs control: 1.51 *
- Tryptophan, plasma, ratio vs control: 1.17 *

Compound: Lead acetate trihydrate
- Cholesterolester No 01, plasma, ratio vs control: 1.28 *
- Glucose, plasma, ratio vs control: 0.91
- Phosphatidylcholine (C16:0, C18:2), plasma, ratio vs control: 1.06 *
- Sphingomyelin (d18:2, C18:0), plasma, ratio vs control: 1.09 *
- TAG (C18:1, C18:2), plasma, ratio vs control: 1.33 *
- TAG (C18:2, C18:2), plasma, ratio vs control: 1.48 *
- TAG No 01, plasma, ratio vs control: 1.5 *

Compound: Nc1ccccc1Cl [2-Chloroaniline]
- 3,4-Dihydroxyphenylalanine (DOPA), ratio versus control: 0.76
- 3,4-Dihydroxyphenylglycol (DOPEG), ratio versus control: 0.87
- 3-Hydroxyindole, ratio versus control: 1.40
- 3-Indoxylsulfate, ratio versus control: 1.68
- 3-Methoxytyrosine, ratio versus control: 1.48
- Cytosine, ratio versus control: 1.41
- Ketoleucine, ratio versus control: 0.60
- Ribal, ratio versus control: 1.24
- Serotonin (5-HT), ratio versus control: 2.64
- biomarkers of table 12a and/or 12b (early indicators of blood anemia) altered as early as: 7 days

Compound: Nc1ccc(Cl)c([N+](=O)[O-])c1 [4-Chloro-3-nitroaniline]
- 3,4-Dihydroxyphenylalanine (DOPA), ratio versus control: 0.93
- 3,4-Dihydroxyphenylglycol (DOPEG), ratio versus control: 0.53
- Ketoleucine, ratio versus control: 0.61
- biomarkers of table 12a and/or 12b (early indicators of blood anemia) altered as early as: 7 days

Compound: Nc1ccc(Cl)c([N+](=O)[O-])c1 [4-Chloro-3 nitroaniline]
- 3-Hydroxyindole, ratio versus control: 1.25
- 3-Indoxylsulfate, ratio versus control: 1.34
- 3-Methoxytyrosine, ratio versus control: 1.90
- Cytosine, ratio versus control: 1.75
- Ribal, ratio versus control: 1.89
- Serotonin (5-HT), ratio versus control: 9.50

Compound: C=CC[C@@H]1/C=C(\C)C[C@H](C)C[C@H](OC)[C@H]2O[C@@](O)(C(=O)C(=O)N3CCCC[C@H]3C(=O)O[C@H](/C(C)=C/[C@@H]3CC[C@@H](O)[C@H](OC)C3)[C@H](C)[C@@H](O)CC1=O)[C@H](C)C[C@@H]2OC [Tacrolimus]
- 18-Hydroxy-11-deoxycorticosterone, ratio versus control: 0.48 *
- Aspartate, ratio versus control: 1.42 *
- Cholesterolester No 01, ratio versus control: 1.05 *
- Glutamate, ratio versus control: 1.29 *
- Glycerol-3-phosphate, polar fraction, ratio versus control: 1.54 *
- Ketoleucine, ratio versus control: 0.85 *
- Pyruvate, ratio versus control: 0.77 *

Compound: Nc1ccccc1 [Aniline]
- 3,4-Dihydroxyphenylalanine (DOPA), ratio versus control: 0.81
- 3,4-Dihydroxyphenylglycol (DOPEG), ratio versus control: 0.84
- 3-Hydroxyindole, ratio versus control: 1.61
- 3-Indoxylsulfate, ratio versus control: 1.64
- 3-Methoxytyrosine, ratio versus control: 1.35
- Cytosine, ratio versus control: 1.62
- Ketoleucine, ratio versus control: 0.94
- Ribal, ratio versus control: 1.66
- biomarkers of table 12a and/or 12b (early indicators of blood anemia) altered as early as: 7 days
